Experimental data published in patent US5728580A, “Methods and culture media for inducing single cell suspension in insect cell lines” (Cornell Research Foundation, Inc., priority 1996, dated 1998).

Columns and labels:
TN5B1-4 cells [1] = assay: Inducing single-cell formation of clumped TN5B1-4 cells in suspension culture; format: cell-based, Trichoplusia ni; conditions: for Inducing single-cell formation / dispersing clumped cells (in words): clumped suspension culture; for Inducing single-cell formation / dispersing clumped cells (in words) / Concentration adequate to maintain single-cell suspension: serum-free medium
[2] = system: AcMNPV binding to TN5B1-4 cells; assay: Binding of [3H]thymidine-labeled AcMNPV budded virus to TN5B1-4 cells; format: cell-based; conditions: for Virus Binding: 30 min; for Binding, A. Binding in Presence of Polyanions: 5 × 10^6 cells/ml for 30 min, control is binding in absence of polyanion; for Binding, C. Pretreatment of Cells: cells pretreated 3 h, washed once, control is untreated cells; for Binding, C. Pretreatment of Cells / Binding, B. Pretreatment of Virus: binding 1 h without polymer; for Binding, B. Pretreatment of Virus: virus pretreated 2 h, pelleted, control is untreated virus
[3] = system: AcMNPV infection of TN5B1-4 cells; conditions: cited from earlier work
TN5B1-4 cells [4] = conditions: for Toxic above this level: tn5b1-4 cells
Method: Three different molecular weights of dextran sulfate, derived from dextran of MW 5000, 20000, 500000, were evaluated.
Compounds were evaluated for their ability to induce single cell suspension in 50-ml spinner flasks at 160 rpm. Control cells were passaged at least 10 times in suspension before they were used in any experiments. […] A qualitative score for reduction in clumping relative to control cells was assigned to cells grown in the presence of test compound at the end of the third passage. The protocol for enzyme treatment was the same, but the seeding density was 1×10^6 cells/ml and cells were evaluated after 24 h.

TN5B1-4 cells [5] = assay: Growth kinetics of TN5B1-4 cells in spinner flasks; format: cell-based, Trichoplusia ni; parameters: dose or concentration left out as unconfirmed
Method: TN5B1-4 suspension cells were grown in 50-ml spinner flasks (Bellco Glass, Vineland, N.J.) with a working volume of 40 ml at 160 rpm. SF21 cells were grown in similar vessels at 130 rpm in Ex-Cell 400 medium. The screw caps of the flasks were replaced with silicone foam closures for better oxygen transfer. Cells were passaged every 3 days.
The growth of TN5B1-4 DS 5000 cells in suspension was scaled-up to a 1.25 L Celligen reactor agitated with a marine impeller at 90 rpm. The cells were subcultured three times in this reactor with no clump formation. The doubling time was 20 h and a maximum density of 6-7×10^6 cells/ml was reached.

[6] = system: AcMNPV binding to SF21 cells; assay: Binding of AcMNPV virus to SF21 cells; format: cell-based
Method: (§1) The inhibition of binding was further explored by considering the effect of increasing polyanion concentration on the binding of virus to TN5B1-4 and SF21. Less than 20 μg/ml of both dextran sulfate and heparin were required to attain maximum inhibition. […] Dextran sulfate reduced the binding of the virus to TN5B1-4 but not to SF21. […] The cell growth post-infection was used as a measure of virus infection since infection is known to inhibit cell division. Hereafter, synchronous infection is used to refer to infection with no measurable cell division post-infection.

[7] = system: AcMNPV infection of TN5B1-4 cells; assay: Viral infection inhibition in TN5B1-4 (cell growth post-infection); format: cell-based; conditions: at concentrations required to induce and maintain single-cell suspension; MOI 0.1 to 20
Method: as §1
The cells were infected at MOI of 0.1, 0.5, 1, 5, 10, and 20 to determine the lowest MOI for synchoronous infection.

[8] = system: AcMNPV infection of SF21 cells; assay: Viral infection inhibition in SF21; format: cell-based
Method: as §1

[9] = 100 μg/ml, control = binding of virus to cells with no additive
[10] = 1000 μg/ml, control = binding of virus to cells with no additive
[11] = 25 μg/ml, control = binding of virus to cells with no additive

DEAE-dextran [DEAE dextran]
Inducing single-cell formation / dispersing clumped cells (in words) (TN5B1-4 cells [1]): ineffective
Virus Binding ([2]; 5 μg/ml, control = binding of virus to cells with no additive): 74 ± 9 % of Control

Heparin
Fold higher concentration required to induce single-cell suspension relative to dextran sulfate (TN5B1-4 cells [1]): 20 fold
Concentration required to attain maximum inhibition of virus binding (threshold value) [2]: Less than 20 μg/ml
Virus Binding [2, 9]: 63 ± 3 % of Control
Inhibition of viral infection (as known) [3]: known to seriously inhibit infection

Pluronic F68
Inducing single-cell formation / dispersing clumped cells (in words) (TN5B1-4 cells [1]): ineffective
Virus Binding [2, 10]: 98 ± 2 % of Control

chondroitin disaccharides [Chondroitin sulfate disaccharides]
Inducing single-cell formation / dispersing clumped cells (in words) (TN5B1-4 cells [1]): did not disperse clumped cells
Virus Binding [2, 9]: 99 ± 6 % of Control

chondroitin sulfate
Virus Binding [2, 9]: 94 ± 3 % of Control

dermatan sulfate
Virus Binding [2, 9]: 65 ± 7 % of Control

dextran
Inducing single-cell formation / dispersing clumped cells (in words) (TN5B1-4 cells [1]): ineffective
Virus Binding [2, 9]: 97 ± 2 % of Control
Virus Binding ([2]; 100 μg/ml, polymer of MW 580 kd, control = no additive): 99 ± 3 % of Control

dextran sulfate [dextran sulfate 500000]
Toxic above this level (TN5B1-4 cells [4]): above 5 μg/ml

dextran sulfate [dextran sulfate II]
Virus Binding [2, 11]: 82 ± 4 % of Control

dextran sulfate [dextran sulfate I]
Inducing single-cell formation in serum-containing media (TN5B1-4 cells [1]; serum-containing media, up to 300 μg/ml): complete elimination of clumping was not possible
Concentration adequate to maintain single-cell suspension (TN5B1-4 cells [1]): 25 µg/mL
Concentration required to attain maximum inhibition of virus binding (threshold value) [2]: Less than 20 μg/ml
Binding, A. Binding in Presence of Polyanions ([2]; 25 μg/ml): 42 ± 2 % of control
Virus Binding [2, 11]: 42 ± 2 % of Control
Binding, C. Pretreatment of Cells ([2]; 25 μg/ml): 93 ± 9 % of control
Binding, B. Pretreatment of Virus ([2]; 25 μg/ml): 103 ± 3 % of control
Reduction of the attachment rate constant ([2]; at concentration required to maintain single-cell suspension): six-fold
Toxic at concentrations greater than (TN5B1-4 cells [4]): greater than 0.1%
Effect on doubling time and maximum cell density (TN5B1-4 cells [5]): does not affect
Effect on binding of virus to SF21 [6]: did not affect binding
Inhibition of viral infection [7]: not severely inhibited
Inhibition of viral infection in SF21 [8]: inhibited infection

fructose 6-phosphate
Inducing single-cell formation / dispersing clumped cells (in words) (TN5B1-4 cells [1]): ineffective

fucoidan sulfate
Virus Binding [2, 11]: 53 ± 1 % of Control
Virus Binding [2, 9]: 53 ± 1 % of Control

glucose 6-phosphate
Inducing single-cell formation / dispersing clumped cells (in words) (TN5B1-4 cells [1]): ineffective

heparin disaccharides
Virus Binding [2, 9]: 103 ± 2 % of Control

hyaluronate
Inducing single-cell formation / dispersing clumped cells (in words) (TN5B1-4 cells [1]): did not induce single-cell formation
Virus Binding [2, 9]: 99 ± 1 % of Control

pentosan sulfate
Concentration adequate to maintain single-cell suspension (TN5B1-4 cells [1]): 100 µg/mL
Virus Binding [2, 11]: 53 ± 3 % of Control
Binding, A. Binding in Presence of Polyanions ([2]; 100 μg/ml): 55 ± 9 % of control
Virus Binding [2, 9]: 55 ± 9 % of Control
Binding, C. Pretreatment of Cells ([2]; 100 μg/ml): 96 ± 7 % of control
Binding, B. Pretreatment of Virus ([2]; 100 μg/ml): 99 ± 4 % of control
Inhibition of viral infection [7]: not severely inhibited

polyphosphate
Inducing single-cell formation / dispersing clumped cells (in words) (TN5B1-4 cells [1]): did not induce single-cell formation

polyvinyl sulfate
Inducing single-cell formation / dispersing clumped cells (in words) (TN5B1-4 cells [1]): as effective as dextran sulfate
Concentration adequate to maintain single-cell suspension (TN5B1-4 cells [1]): 25 µg/mL
Virus Binding ([2]; 10 μg/ml, control = binding of virus to cells with no additive): 52 ± 4 % of Control
Binding, A. Binding in Presence of Polyanions ([2]; 25 μg/ml): 52 ± 4 % of control
Virus Binding [2, 11]: 52 ± 1 % of Control
Binding, C. Pretreatment of Cells ([2]; 25 μg/ml): 95 ± 6 % of control
Binding, B. Pretreatment of Virus ([2]; 25 μg/ml): 96 ± 5 % of control
Inhibition of viral infection [7]: inhibited viral infection even at high MOI

protamine sulfate
Inducing single-cell formation / dispersing clumped cells (in words) (TN5B1-4 cells [1]): ineffective
Virus Binding ([2]; 50 μg/ml, control = binding of virus to cells with no additive): virus ppt.

sodium carboxymethylcellulose [sodium CMC]
Inducing single-cell formation / dispersing clumped cells (in words) (TN5B1-4 cells [1]): did not induce single-cell formation
Virus Binding [2, 10]: 107 ± 1 % of Control

sodium polyphosphoric acid
Inducing single-cell formation / dispersing clumped cells (in words) (TN5B1-4 cells [1]): did not induce single-cell formation
Virus Binding [2, 9]: 98 ± 1 % of Control

κ-carrageenan
Virus Binding [2, 9]: 73 ± 6 % of Control

λ-carrageenan
Virus Binding [2, 11]: 68 ± 3 % of Control
Toxic above this level (TN5B1-4 cells [4]): > 25 µg/mL
